Experimental findings from patent US11369605B2, “Optically active azabicyclo ring derivative” (priority 2018, dated 2022) are described below.

Series [1] relates to RS4; 11 cells. As to the kind of experiment: Test 2: inhibition of cell proliferation, RS4; 11. Type of series: cell-based. As to conditions: for cell proliferation inhibition activity (in words): summary of Test 2 (RS4; 11 and MOLM-13). As for the experimental part:
(§1) Test for Evaluating the Inhibition of Cell Proliferation RS4; 11 cells were obtained from American Type Culture Collection (ATCC). […] MOLM-13 cells were separately obtained from DSMZ (Deutsche Sammlung von Mikroorganismen und Zeilkulturen GmbH). […] The cells were plated to a 96-well plate in 2000 cells/well, each test compound was added thereto to adjust the final concentration of DMSO to 0.1% of DMSO, and the cells were cultured for 7 days. After the cultivation, the cell viability was calculated with PrestoBlue™ Cell Viability Reagent (Invitrogen, A13261).

Series [2] addresses hERG (human Ether-a-go-go Related Gene) (Homo sapiens (Human), UniProt Q12809). As to the kind of experiment: Test 4: hERG inhibition (QPatch HT). The note with it: for IC50: read-out: hERG inhibition IC50, CHO cell strain stably expressing hERG; for gap between RS4; 11 proliferation IC50 and hERG current IC50: summary of Test 4 table; for hERG/RS4; 11: hERG IC50 divided by RS4, 11 proliferation IC50.

In series [3] the target is Menin-MLL binding (His-Menin1-615, MLL1-172-FLAG) (Homo sapiens (Human), UniProt O00255). The series can be described thus: Test 1: inhibition of the Menin-MLL binding (HTRF). The note with it: summary of Test 1 table. As for the experimental part:
Test 1: Test for Evaluating the Inbinition of the Menin-MLL Binding
After the incubation, the signal was detected with RUBYstar (BMG LABTECH).
In general terms: In TR-FRET formats the signal depends on donor and acceptor labels being close together.

In series [4] the test system is MEIS1 mRNA in MV4; 11 cells. The series can be described thus: Test 3: inhibition of mRNA transcription, MEIS1. Type of series: cell-based. As to conditions: MEIS1 and HOXA9, MV4, summary of Test 3. The protocol:
Test 3: Test for the Inhibition of mRNA Transcription with Test Compounds
MV4; 11 cells were obtained from American Type Culture Collection (ATCC). […] After the incubation, the total RNA was extracted from the cells with RNeasy™ Mini Kit (QIAGEN, 74106), and cDNA was synthesized with Superscript™ VILO™ cDNA Synthesis Kit (Invitrogen, #11754250). By using TaqMan™ Gene Expression Master Mix (Applied Biosystems, 4369016) and TaqMan™ probe (Applied Biosystems), the expression level of mRNA was quantified from the obtained cDNA with 7900HT (Applied Biosystems). The expression level of each obtained gene (MEIS1 and HOXA9) was fitted with the expression level of mRNA of GAPDH.

Series [5] concerns MOLM-13 cells. As to the kind of experiment: Test 2: inhibition of cell proliferation, MOLM-13. It is filed as cell-based. As to conditions: cultured 7 days, PrestoBlue. As for the experimental part: as §1

“Also recorded” adds a separate entry of the source.

Menin-MLL binding (His-Menin1-615, MLL1-172-FLAG), sequence (O00255 other isoform, or with tags, fused parts or gaps): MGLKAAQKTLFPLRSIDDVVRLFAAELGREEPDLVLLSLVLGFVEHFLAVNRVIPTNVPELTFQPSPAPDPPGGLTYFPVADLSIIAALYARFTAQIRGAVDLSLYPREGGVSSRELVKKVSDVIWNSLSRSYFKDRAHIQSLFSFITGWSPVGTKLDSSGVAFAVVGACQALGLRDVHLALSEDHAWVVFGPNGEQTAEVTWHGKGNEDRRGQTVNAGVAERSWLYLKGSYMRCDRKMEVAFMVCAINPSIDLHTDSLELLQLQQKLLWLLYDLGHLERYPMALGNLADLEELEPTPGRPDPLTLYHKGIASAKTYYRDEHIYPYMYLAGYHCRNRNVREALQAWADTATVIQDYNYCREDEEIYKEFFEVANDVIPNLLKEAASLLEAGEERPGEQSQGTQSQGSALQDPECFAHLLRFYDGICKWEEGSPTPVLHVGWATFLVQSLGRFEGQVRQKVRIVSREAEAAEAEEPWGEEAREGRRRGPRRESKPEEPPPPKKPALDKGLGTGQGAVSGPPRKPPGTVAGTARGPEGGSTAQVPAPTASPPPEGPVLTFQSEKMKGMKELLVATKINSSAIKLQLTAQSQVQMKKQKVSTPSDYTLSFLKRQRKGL
hERG (human Ether-a-go-go Related Gene), sequence (Q12809 whole entry): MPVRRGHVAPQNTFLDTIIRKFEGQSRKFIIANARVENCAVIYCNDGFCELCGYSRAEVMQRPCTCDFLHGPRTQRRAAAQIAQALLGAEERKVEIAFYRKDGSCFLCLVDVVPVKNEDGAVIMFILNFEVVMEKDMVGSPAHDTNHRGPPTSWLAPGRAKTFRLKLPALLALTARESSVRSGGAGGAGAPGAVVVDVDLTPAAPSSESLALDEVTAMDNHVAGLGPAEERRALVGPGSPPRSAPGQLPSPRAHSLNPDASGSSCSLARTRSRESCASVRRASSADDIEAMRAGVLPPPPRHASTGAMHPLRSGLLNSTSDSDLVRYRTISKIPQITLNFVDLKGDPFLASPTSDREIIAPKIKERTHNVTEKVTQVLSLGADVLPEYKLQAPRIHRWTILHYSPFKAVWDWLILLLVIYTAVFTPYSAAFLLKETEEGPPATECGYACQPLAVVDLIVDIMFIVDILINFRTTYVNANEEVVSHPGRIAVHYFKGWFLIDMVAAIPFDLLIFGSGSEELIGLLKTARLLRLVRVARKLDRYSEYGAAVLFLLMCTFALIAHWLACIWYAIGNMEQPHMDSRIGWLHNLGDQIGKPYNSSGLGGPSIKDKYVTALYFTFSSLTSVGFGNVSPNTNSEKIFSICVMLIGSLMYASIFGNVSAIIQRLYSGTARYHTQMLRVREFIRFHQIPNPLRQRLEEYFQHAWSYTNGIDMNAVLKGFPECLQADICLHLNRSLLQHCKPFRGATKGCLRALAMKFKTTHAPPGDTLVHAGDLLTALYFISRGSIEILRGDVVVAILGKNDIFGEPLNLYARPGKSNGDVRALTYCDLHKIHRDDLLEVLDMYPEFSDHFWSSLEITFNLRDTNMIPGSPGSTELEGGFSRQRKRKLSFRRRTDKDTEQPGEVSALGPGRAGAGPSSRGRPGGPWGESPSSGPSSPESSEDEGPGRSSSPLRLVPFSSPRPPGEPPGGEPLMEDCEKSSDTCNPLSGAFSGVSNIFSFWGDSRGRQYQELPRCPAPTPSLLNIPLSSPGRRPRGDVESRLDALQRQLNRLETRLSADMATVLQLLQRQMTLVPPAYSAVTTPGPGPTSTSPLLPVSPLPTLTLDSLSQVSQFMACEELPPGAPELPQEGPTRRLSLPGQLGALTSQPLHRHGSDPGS

In general, IC50 refers to the concentration that inhibits the measured activity by half. “2-[(4-{6-[(1R,3S,4S)-2-azabicyclo[2.2.1]heptane-3-carbonyl]-2,6-diazaspiro[3.3]heptan-2-yl}pyrimidin-5-yl)oxy]-5-fluoro-N,N-di(propan-2-yl)benzamide [Example 15]”: the “cell proliferation inhibition activity (in words)” value in series [1] was “potent”. In series [2], the IC50 was over 100 µM.
Take `C=C1C[C@H]2CC[C@@H]1N[C@@H]2C(=O)N1CC2(C1)CN(c1ncncc1Oc1ccc(F)cc1C(=O)N(C(C)C)C(C)C)C2` [Example 9, 5-fluoro-2-[(4-{6-[(1S,3S,4R)-6-methylidene-2-azabicyclo[2.2.2]octane-3-carbonyl]-2,6-diazaspiro[3.3]heptan-2-yl}pyrimidin-5-yl)oxy]-N,N-di(propan-2-yl)benzamide]: in series [2], the “gap between RS4; 11 proliferation IC50 and hERG current IC50” value (from here on “gap between RS4”) is reported as “more than 100 fold”.
With `CC(C)N(C(=O)c1cc(F)ccc1Oc1cncnc1N1CC2(CCN(C(=O)[C@H]3N[C@H]4CC[C@@H]3C[C@@H]4CC3CC3)CC2)C1)C(C)C` [Example 1, 2-[(4-{7-[(1S,3S,4R,6S)-6-(Cyclopropylmethyl)-2-azabicyclo[2.2.2]octane-3-carbonyl]-2,7-diazaspiro[3.5]nonan-2-yl}pyrimidin-5-yl)oxy]-5-fluoro-N,N-di(propan-2-yl)benzamide], the “Menin-MLL binding inhibition activity (in words)” value in series [3] is reported as “potent”. Also, the “cell proliferation inhibition activity (in words)” value in series [1] was “potent”. For the same compound, the “mRNA transcription inhibition activity (in words)” value in series [4] is listed as “showed the mRNA transcription inhibition activity”. The “gap between RS4” value in series [2] is reported as “more than 100 fold”.
Turning to `CC(C)N(C(=O)c1cc(F)ccc1Oc1cncnc1N1CC2(CN(C(=O)[C@H]3N[C@H]4CC[C@@H]3C[C@@H]4CC3CC3)C2)C1)C(C)C` [Example 3, 2-[(4-{6-[(1S,3S,4R,6S)-6-(cyclopropylmethyl)-2-azabicyclo[2.2.2]octane-3-carbonyl]-2,6-diazaspiro[3.3]heptan-2-yl}pyrimidin-5-yl)oxy]-5-fluoro-N,N-di(propan-2-yl)benzamide], in series [3], the “Menin-MLL binding inhibition activity (in words)” value is “particularly potent”. Also, in series [1], the “cell proliferation inhibition activity (in words)” value is reported as “potent”. In addition, the “mRNA transcription inhibition activity (in words)” value in series [4] is given as “showed the mRNA transcription inhibition activity”. Moreover, the “gap between RS4” value in series [2] is recorded as “more than 100 fold”.
In the case of `C=C1C[C@@H]2CC[C@H]1[C@@H](C(=O)N1CCC3(CC1)CN(c1ncncc1Oc1ccc(F)cc1C(=O)N(C(C)C)C(C)C)C3)N2` [Example 6, 5-Fluoro-2-[(4-{7-[(1S,3S,4R)-5-methylidene-2-azabicyclo[2.2.2]octane-3-carbonyl]-2,7-diazaspiro[3.5]nonan-2-yl}pyrimidin-5-yl)oxy]-N,N-di(propan-2-yl)benzamide], in series [4], the “mRNA transcription inhibition activity (in words)” value is “showed the mRNA transcription inhibition activity”.
Regarding `CC(C)N(C(=O)c1cc(F)ccc1Oc1cncnc1N1CC2(CN(C(=O)[C@H]3N[C@H]4CC[C@@H]3C[C@H]4CC3CC3)C2)C1)C(C)C` [Example 5, 2-[(4-{6-[(1S,3S,4R,6R)-6-(cyclopropylmethyl)-2-azabicyclo[2.2.2]octane-3-carbonyl]-2,6-diazaspiro[3.3]heptan-2-yl}pyrimidin-5-yl)oxy]-5-fluoro-N,N-di(propan-2-yl)benzamide], the “Menin-MLL binding inhibition activity (in words)” value in series [3] is “potent”. Besides, the “cell proliferation inhibition activity (in words)” value in series [1] is “potent; also recorded: excellent”. Besides, in series [4], the “mRNA transcription inhibition activity (in words)” value is “showed the mRNA transcription inhibition activity”. For the same compound, the “gap between RS4” value in series [2] is given as “more than 100 fold”.
Turning to “2-[(4-{7-[(1R,3S,4S)-2-azabicyclo[2.2.1]heptane-3-carbonyl]-2,7-diazaspiro[3.5]nonan-2-yl}pyrimidin-5-yl)oxy]-5-fluoro-N,N-di(propan-2-yl)benzamide [Example 16]”, the “cell proliferation inhibition activity (in words)” value in series [1] is listed as “potent”. In addition, the concentration for half-maximal inhibition (IC50) in series [5] is 40 nM; in series [2] it was over 100 µM.
Turning to `CC(C)N(C(=O)c1cc(F)ccc1Oc1cncnc1N1CC2(CCN(C(=O)[C@H]3N[C@H]4CC[C@@H]3[C@H](F)[C@@H]4CC3CC3)CC2)C1)C(C)C` [Example 19, 2-[(4-{7-[(1S,3S,4S,5R,6R)-6-(cyclopropylmethyl)-5-fluoro-2-azabicyclo[2.2.2]octane-3-carbonyl]-2,7-diazaspiro[3.5]nonan-2-yl}pyrimidin-5-yl)oxy]-5-fluoro-N,N-di(propan-2-yl)benzamide], the “cell proliferation inhibition activity (in words)” value in series [1] is recorded as “potent”. Further, in series [2], the “hERG/RS4; 11” value is listed as over 690; the “gap between RS4” value is on record as “more than 100 fold”.
As for `CC(C)N(C(=O)c1cc(F)ccc1Oc1cncnc1N1CC2(CCN(C(=O)[C@H]3N[C@H]4CC[C@@H]3C(=O)C4)CC2)C1)C(C)C` [Example 12, 5-fluoro-2-[(4-{7-[(1S,3S,4S)-5-oxo-2-azabicyclo[2.2.2]octane-3-carbonyl]-2,7-diazaspiro[3.5]nonan-2-yl}pyrimidin-5-yl)oxy]-N,N-di(propan-2-yl)benzamide], in series [2], the “gap between RS4” value is recorded as “more than 100 fold”.
`C=C1C[C@H]2CC[C@@H]1N[C@@H]2C(=O)N1CCC2(CC1)CN(c1ncncc1Oc1ccc(F)cc1C(=O)N(C(C)C)C(C)C)C2` [Example 8, 5-fluoro-2-[(4-{7-[(1S,3S,4R)-6-methylidene-2-azabicyclo[2.2.2]octane-3-carbonyl]-2,7-diazaspiro[3.5]nonan-2-yl}pyrimidin-5-yl)oxy]-N,N-di(propan-2-yl)benzamide]: the “gap between RS4” value in series [2] was “more than 100 fold”.
As to `CC(C)N(C(=O)c1cc(F)ccc1Oc1cncnc1N1CC2(CCN(C(=O)[C@H]3N[C@H]4CC[C@@H]3C[C@H]4CC3CC3)CC2)C1)C(C)C` [Example 4, 2-[(4-{7-[(1S,3S,4R,6R)-6-(cyclopropylmethyl)-2-azabicyclo[2.2.2]octane-3-carbonyl]-2,7-diazaspiro[3.5]nonan-2-yl}pyrimidin-5-yl)oxy]-5-fluoro-N,N-di(propan-2-yl)benzamide], the “Menin-MLL binding inhibition activity (in words)” value in series [3] is listed as “potent”. Besides, the “cell proliferation inhibition activity (in words)” value in series [1] is reported as “potent”. For the same compound, in series [4], the “mRNA transcription inhibition activity (in words)” value is given as “showed the mRNA transcription inhibition activity”. In addition, the “gap between RS4” value in series [2] was “more than 100 fold”.
`CC(C)N(C(=O)c1cc(F)ccc1Oc1cncnc1N1CC2(CCN(C(=O)[C@H]3N[C@H]4CC[C@@H]3[C@@H](F)[C@H]4CC3CC3)CC2)C1)C(C)C` [Example 14, 2-[(4-{7-[(1S,3S,4S,5S,6S)-6-(cyclopropylmethyl)-5-fluoro-2-azabicyclo[2.2.2]octane-3-carbonyl]-2,7-diazaspiro[3.5]nonan-2-yl}pyrimidin-5-yl)oxy]-5-fluoro-N,N-di(propan-2-yl)benzamide]: the concentration for half-maximal inhibition (IC50) is 20 nM in series [1] (Homo sapiens, RS4, 11 cells, cultured 7 days, PrestoBlue) and 40 nM in series [5] (Homo sapiens). Further, the “cell proliferation inhibition activity (in words)” value in series [1] is recorded as “potent”. Besides, the “hERG/RS4; 11” value in series [2] came to 557. Moreover, in series [2], the “gap between RS4” value is “more than 100 fold”.
On to `CC(C)N(C(=O)c1cc(F)ccc1Oc1cncnc1N1CC2(CN(C(=O)[C@H]3N[C@H]4CC[C@@H]3[C@@H](F)C4)C2)C1)C(C)C` [Example 10, 5-fluoro-2-[(4-{6-[(1S,3S,4S,5S)-5-fluoro-2-azabicyclo[2.2.2]octane-3-carbonyl]-2,6-diazaspiro[3.3]heptan-2-yl}pyrimidin-5-yl)oxy]-N,N-di(propan-2-yl)benzamide], for which the “Menin-MLL binding inhibition activity (in words)” value in series [3] is reported as “particularly potent”. In addition, in series [1], the “cell proliferation inhibition activity (in words)” value was “potent”. Further, in series [4], the “mRNA transcription inhibition activity (in words)” value is “showed the mRNA transcription inhibition activity”. Moreover, the “gap between RS4” value in series [2] is on record as “more than 100 fold”.
For the compound “5-fluoro-2-[(4-{7-[(1S,3S,4R)-5-methylidene-2-azabicyclo[2.2.1]heptane-3-carbonyl]-2,7-diazaspiro[3.5]nonan-2-yl}pyrimidin-5-yl)oxy]-N,N-di(propan-2-yl)benzamide [Example 18]”, the “cell proliferation inhibition activity (in words)” value in series [1] is recorded as “potent”. In addition, the IC50 in series [5] was 40 nM; in series [2] it was 46.1 µM.
